Data on seven molecules can be found in US4863925A, “Cyclohexanedione derivative for hepatic disorders and a process for producing the same” (Nihon Nohyaku Co., Ltd., priority 1986, dated 1989).

A short description of data set [1]: acute oral toxicity (LD50). To be noted: in vivo, male rat. The procedure:
For example, LD50 value (acute oral toxicity to male rat) of the compound No. 55 is more than 1,000 mg/kg.

The subject of data set [2] is hepatic disorder caused by carbon tetrachloride. Nature of the data set: Effect of suppressing hepatic disorder caused by carbon tetrachloride (Test Example 1). Type of data set: in vivo, mice (dd-strain, male). The following applies: 30 mg/kg p.o., 6 h before CCl4 0.05 ml/kg p.o., 24 h after CCl4, mean of five mice; for Liver injury index: 0 healthy, 2 slightly affected, 4 evidently observed injury, 6 serious injury; for P-GPT (plasma glutamic pyruvic transaminase activity): Reitman-Frankel, 2,000 or higher calculated as 2,000. Set-up: key to Liver injury index: 0 = healthy, 2 = slight, 4 = evident injury, 6 = serious injury. How it is done:
Effect of suppressing hepatic disorder caused by carbon tetrachloride. […] The animals were sacrificed 24 hours after the administration of carbon tetrachloride, and the extent of liver injury was examined. On the other hand, blood was collected from the animal at the time of the sacrifice, and centrifuged to obtain plasma. The plasma glutamic pyruvic transminase (GPT) activity was determined according to the method of Reitman-Frankel. The activity was expressed in terms of Karmen Units (K.U.). The conditions of the liver were expressed in terms of liver injury index as follows. |Liver injury index | Condition of liver |0 Healthy liver |2 Slightly affected |4 Evidently observed injury |6 Serious injury Mice were used in groups of five of test were represented by the mean value. When the GPT activity was 2,000 units or higher, or further determination was made, the activity was calculated as 2,000 units for reasons of convenience.

Consider `COc1ccc(C2CC(=O)C(=C3SC4C(S3)N(C)CCN4C)C(=O)C2)cc1` (stereo not drawn) [compound 55], for which, in data set [1], the LD50 (commonly the dose at which mortality reaches 50%) is above 1000 mg/kg. In data set [2], the Liver injury index is 0.3 and the “P-GPT (plasma glutamic pyruvic transaminase activity)” value (“P-GPT” for short) was 107 K.U.

With `Cc1ccc(C2CC(=O)C(=C3SC4C(S3)N(C)CCN4C)C(=O)C2)cc1` (stereo not drawn) [Compound No. 43], in data set [2], the Liver injury index was 0.2 and the “P-GPT” value is listed as 24 K.U.

Regarding `CCOC(=O)C1C(=O)C(=C2SC3C(S2)N(C)CCN3C)C(=O)CC1c1ccc(C)cc1` (stereo not drawn) [compound 102], in data set [2], the Liver injury index stood at 1.5 and the “P-GPT” value is given as 319 K.U.

As for `CC1CNC2SC(=C3C(=O)CC(C)(C)CC3=O)SC2N1` (stereo not drawn) [compound 14, 2-[3-methyl-2,5-diaza-7,9-dithiabicyclo-(4.3.0)-nonane-8-ylidene]-5,5-dimethyl-1,3-cyclohexanedione], in data set [2], the Liver injury index was 0.4 and the “P-GPT” value is 18 K.U.

For `CN1CCN(C)C2SC(=C3C(=O)CC(C4CCCCC4)CC3=O)SC21` (stereo not drawn) [compound 80], in data set [2], the Liver injury index was 1.0 and the “P-GPT” value is recorded as 405 K.U.

`CN1CCNC2SC(=C3C(=O)CC(c4ccccc4Cl)CC3=O)SC21` (stereo not drawn) [compound 121]: in data set [2], the Liver injury index came out at 0 and the “P-GPT” value is 20 K.U.

Consider `CN1CCN(C)C2SC(=C3C(=O)CC(c4cccs4)CC3=O)SC21` (stereo not drawn) [compound 82, 2-[2,5-dimethyl-2,5-diaza-7,9-dithiabicyclo-(4.3.0)-nonane-8-ylidene]-5-(2-thienyl)-1,3-cyclo hexanedione], for which, in data set [2], the Liver injury index stood at 0.3 and the “P-GPT” value is 16 K.U.
